Data taken from patent publication US8188287B2, “Piperidyl acrylamide antagonists of CCR2” (Janssen Pharmaceutica N.V., priority 2008, dated 2012).

Each compound was assayed against T1, CCR2 (Homo sapiens, UniProt P41597) (assay: MCP-1 Receptor Binding Assay in THP-1 Cells). Settings: 125I labeled MCP-1 0.5 nM, 2 hours at 30° C., read-out: Inhibition of MCP-1 Binding IC50.
T1 construct: host or cells: THP-1 (human monocytic cell line)
Protocol: MCP-1 Receptor Binding Assay in THP-1 Cells
Human monocytic cell line THP-1 cells were obtained from American Type Culture Collection (Manassas, Va., USA). The THP-1 cells were grown in RPMI-1640 (RPMI: Roswell Park Memorial Institute Medium-cell culture growth media) supplemented with 10% fetal bovine serum in a humidified 5% CO2 atmosphere at 37° C. The cell density was maintained […].
THP-1 (cells were incubated with 0.5 nM ^125I labeled MCP-1 (Perkin-Elmer Life Sciences, Inc. Boston, Mass.) in the presence of varying concentrations of either unlabeled MCP-1 (R & D Systems, Minneapolis, Minn.) or test compound for 2 hours at 30° C. in a 96 well plate. Cells were then harvested onto a filter plate, dried, and 20 μL of Microscint 20 was added to each well. Plates were counted in a TopCount NXT, Microplate Scintillation & Luminescence Counter (Perkin-Elmer Life Sciences, Inc. Boston, Mass.). Blank values (buffer only) were subtracted from all values and drug treated values were compared to vehicle treated values. 1 μM cold MCP-1 was used for nonspecific binding.
Table 1 lists IC50 values for inhibition of MCP-1 binding to CCR2 obtained for test compounds of the invention. Where an IC50 value was not obtained for a particular compound, the percent inhibition is provided at a test concentration of 25 μM. TABLE 1 Inhibition of MCP-1 Binding IC50 (μM)

T1 sequence (P41597 whole entry): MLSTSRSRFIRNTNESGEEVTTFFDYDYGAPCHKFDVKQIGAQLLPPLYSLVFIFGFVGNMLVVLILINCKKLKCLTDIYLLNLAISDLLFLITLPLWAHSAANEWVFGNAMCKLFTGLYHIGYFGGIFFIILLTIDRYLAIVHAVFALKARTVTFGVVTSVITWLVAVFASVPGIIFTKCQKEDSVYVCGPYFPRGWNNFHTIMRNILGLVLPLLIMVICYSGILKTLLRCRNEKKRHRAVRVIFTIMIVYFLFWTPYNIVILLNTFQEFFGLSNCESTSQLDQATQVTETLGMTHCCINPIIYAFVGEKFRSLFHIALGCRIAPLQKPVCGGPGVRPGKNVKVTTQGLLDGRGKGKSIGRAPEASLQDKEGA

IC50 | SMILES
1600 nM | O=C(/C=C/c1cc(F)c(F)c(F)c1)N1CCC(NN2CCC(c3c[nH]c4ccccc34)CC2)CC1 [Compound 3a, 1-{4-[4-(1H-Indol-3-yl)-piperidin-1-ylamino]-piperidin-1-yl}-3-(3,4,5-trifluoro-phenyl)-propenone]
1400 nM | O=C(/C=C/c1cc(F)c(F)c(F)c1)N1CCC(N(CC(O)CO)N2CCC(c3c[nH]c4ccccc34)CC2)CC1 (stereo not shown) [Compound 4d, 1-(4-{(2,3-Dihydroxy-propyl)-[4-(1H-indol-3-yl)-piperidin-1-yl]-amino}-piperidin-1-yl)-3-(3,4,5-trifluoro-phenyl)-propenone]
640 nM | O=C(O)C(NN1CCC(c2c[nH]c3ccccc23)CC1)C1CCN(C(=O)/C=C/c2cc(F)c(F)c(F)c2)CC1 (racemic) [Compound 5d, [4-(1H-Indol-3-yl)-piperidin-1-ylamino]-{1-[3-(3,4,5-trifluoro-phenyl)-acryloyl]-piperidin-4-yl}-acetic acid]

Same assay, conditions: test concentration of 25 μM, 125I labeled MCP-1 0.5 nM

Inhibition of MCP-1 Binding Inh (%) | SMILES
34% | CCN(C1CCN(C(=O)/C=C/c2cc(F)c(F)c(F)c2)CC1)N1CCC(c2c[nH]c3ccccc23)CC1 [Compound 4b, 1-(4-{Ethyl-[4-(1H-indol-3-yl)-piperidin-1-yl]-amino}-piperidin-1-yl)-3-(3,4,5-trifluoro-phenyl)-propenone]
59% | CN(C1CCN(C(=O)/C=C/c2cc(F)c(F)c(F)c2)CC1)N1CCC(c2c[nH]c3ccccc23)CC1 [Compound 4a, 1-(4-{[4-(1H-Indol-3-yl)-piperidin-1-yl]-methyl-amino}-piperidin-1-yl)-3-(3,4,5-trifluoro-phenyl)-propenone]
0% | CC(C)CN(C1CCN(C(=O)/C=C/c2cc(F)c(F)c(F)c2)CC1)N1CCC(c2c[nH]c3ccccc23)CC1 [Compound 4c, 1-(4-{[4-(1H-Indol-3-yl)-piperidin-1-yl]-isobutyl-amino}-piperidin-1-yl)-3-(3,4,5-trifluoro-phenyl)-propenone]
20% | O=C(/C=C/c1cc(F)c(F)c(F)c1)N1CCC(N(Cc2ncc[nH]2)N2CCC(c3c[nH]c4ccccc34)CC2)CC1 [Compound 4e, 1-(4-{(1H-Imidazol-2-ylmethyl)-[4-(1H-indol-3-yl)-piperidin-1-yl]-amino}-piperdin-1-yl)-3-(3,4,5-trifluoro-phenyl)-propenone]
